Test results: patent US9815866B2, “Peptides that bind to epithelial cell adhesion molecule” (JAPANESE FOUNDATION FOR CANCER RESEARCH, priority 2012, dated 2017)
One block for each molecule: values may come before it. Bridge positions count the residues as written; N and C are the ends. Ends that are not written are not given here. Peptide text beside a SMILES is read from it. * marks the point of attachment. Biotin = O=C1N[C@H]2[C@H](CS[C@H]2CCCCC(=O)*)N1

Key:
EpCAM on HT-29 = biological target: T1, EpCAM on HT-29 (Homo sapiens, UniProt P16422); assay: Staining of spheroid-cultured HT-29 cells with FITC-modified peptide; format: cell-based; set-up: endogenous in cells; host or cells: HT-29; settings: FITC-labeled peptide, 0.4 μM
T1 sequence (P16422 24-314): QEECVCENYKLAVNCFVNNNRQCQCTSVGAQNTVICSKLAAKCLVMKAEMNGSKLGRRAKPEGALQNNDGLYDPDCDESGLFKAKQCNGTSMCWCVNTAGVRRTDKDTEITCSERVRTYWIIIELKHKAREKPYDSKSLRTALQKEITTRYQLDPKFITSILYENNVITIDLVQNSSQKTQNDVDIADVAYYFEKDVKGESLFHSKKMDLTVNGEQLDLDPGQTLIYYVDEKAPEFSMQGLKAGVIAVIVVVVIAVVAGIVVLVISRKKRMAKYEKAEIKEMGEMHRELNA
Experimental: The HT-29 cells as EpCAM-expressing cells were cultured by spheroid culture method as follows: 4×10^5 cells are suspended in 3 ml of D-MEM/F-12 medium (Dulbecco's Modified n Eagle Medium:Nutrient Mixture 12, 1:1 mixture) (Gibco/Life Technologies Inc.) supplemented with 20 ng/ml human EGF (Miltenyi Biotec K.K.), 20 ng/ml human EGF-2 (Miltenyi Biotec K.K.), B-27 (Gibco/Life Technologies Inc.), penicillin, and streptomycin and inoculated to EZ-Sphere®, a Petri dish of 3.5 cm in diameter coated with MPC polymer. After static culture for 72 hours, the cells were collected while the medium was suspended by pipetting. The cells were stained with the FITC-modified peptide and observed under a fluorescence microscope. […]

[1] = biological target: T2, 293T cells transfected with full-length EpCAM gene (Homo sapiens, UniProt P16422); assay: Staining of 293T cells forced to express EpCAM with FITC-modified peptide; format: cell-based
T2 construct: an expression plasmid in which the full-length EpCAM gene incorporated; expressed in transfected cells; host or cells: 293T
T2 sequence (P16422 24-314): T1 sequence (P16422 24-314)
From the text: 293T cells expressing no endogenous EpCAM were transfected with pkk196, an expression plasmid in which the full-length EpCAM gene incorporated, and forced to express EpCAM, followed by staining using FITC-modified Ep114.

EpCAM [2] = biological target: T3, EpCAM (Homo sapiens, UniProt P16422); assay: Binding activity against EpCAM after oxidation treatment (S—S bond formation, HPLC fractionation)
T3 sequence (P16422 24-314): T1 sequence (P16422 24-314)

[3] = biological target: T4, EpCAM-expressing cells HT-29 (Homo sapiens, UniProt P16422); assay: Cell staining of HT-29 cells, confocal microscope; format: cell-based; settings: HT-29, FITC-labeled peptide 0.4 μM, 37° C., 1 hour
T4 construct: EpCAM on HT-29 was stained at a concentration of 0.4 μM; endogenous in cells; host or cells: HT-29
T4 sequence (P16422 24-314): T1 sequence (P16422 24-314)
Experimental: The EpCAM-expressing cells HT-29 or the non-expressing cells Hs578T were cultured in a medium containing 10% fetal calf serum in a Petri dish for 48 hours and then incubated at 37° C. for 1 hour with the FITC-labeled Ep114 peptide or a L3A control labeled peptide at a final concentration of 0.4 μM Immediately thereafter, the cells were observed under a confocal microscope.

EpCAM [4] = biological target: T5, EpCAM (Homo sapiens, UniProt P16422); assay: ELISA with immobilized biotinylated peptide and purified EpCAM; format: binding; settings: purified EpCAM 0, 10 or 100 ng
T5 construct: with insertions myc and His tags at the C terminus of the extracellular domain; myc (C); made in house; host or cells: HEK-293T
T5 sequence (P16422 24-265 limits assumed): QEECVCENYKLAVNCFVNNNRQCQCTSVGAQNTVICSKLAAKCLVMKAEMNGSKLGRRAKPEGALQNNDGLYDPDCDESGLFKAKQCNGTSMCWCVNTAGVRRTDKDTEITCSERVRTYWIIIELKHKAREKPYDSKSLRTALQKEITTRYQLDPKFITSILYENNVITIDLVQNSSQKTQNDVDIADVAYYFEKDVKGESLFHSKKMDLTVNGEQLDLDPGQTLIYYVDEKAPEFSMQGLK
Experimental: was immobilized onto an ELISA plate via streptavidin, and purified EpCAM was added thereto in an amount of 0, 10, or 100 ng and reacted. After washing, bound EpCAM was detected using the anti-EpCAM antibody. A biotin-modified peptide PE194 (Ac-[…](biotin)-NH2) (SEQ ID NO: 13) of the L3A variant (non-EpCAM-binding variant) was used as a control.

EpCAM [5] = biological target: T5, EpCAM; assay: Dissociation constant of EpCAM-binding peptide and EpCAM by fluorescence depolarization method; settings: FITC-modified peptide; Kd estimated by curve fitting, Hill equation; N.B.: Not bound
Experimental: The obtained EpCAM peptides were assayed for their strength of binding to EpCAM by the fluorescence depolarization method, which is a method for evaluating the interaction between molecules. Each fluorescently labeled EpCAM peptide and EpCAM are used to determine the strength of binding from the kinetics of depolarization by Brownian movement.
Each FITC-modified EpCAM peptide or control peptide was suspended at a concentration of approximately 100 μM in PBS. After centrifugation, the supernatant was collected and diluted 10-fold, and the absorbance was measured at 495 nm From the measurement value, the molar concentration of the peptide was determined using the formula of Beer-Lambert of the following expression 1: A=E×b×C [Expression 1]
EpCAM is diluted with PBS into several concentrations from 0 until reaching equilibrium (40 nM for the Ep133 peptide), and the FITC-modified peptide whose precise concentration has been measured by the aforementioned method is added to the dilutions thus prepared. The sample was left at a temperature for measurement for 30 minutes or longer and subjected to polarization measurement using a spectrofluorometer FP-6500 (JASCO Corp.) equipped with an automatic polarization measurement unit (JASCO Corp., APH-103). Kd was estimated by curve fitting according to the Hill equation.
The dissociation constants of the two types of peptides Ep133 (FIG. 2(A)) and Ep114 (FIG. 2(C)), which were obtained in the present invention and had the high ability to bind to EpCAM, were measured by the fluorescence depolarization method.
The dissociation constants of the EpCAM-binding peptide Ep301 (FIG. 2(D)) disclosed in Patent Literature 2 and Ep301 control (FIG. 2(E)), which was a control peptide derived from Ep301 by the substitution of cysteine at positions 5 and 10 by serine, and a sequence of EpCAM from residue 106 to 119 (FIG. 2(F)) having partial homology to EpCAM-binding peptides were measured similarly.

Molecule: CC(C)C[C@@H]1NC(=O)[C@@H](NC(=O)[C@H](Cc2c[nH]cn2)NC(=O)[C@H](CC(C)C)NC(=O)[C@H](Cc2c[nH]cn2)NC(=O)[C@@H](N)CCC(=O)O)CSSC[C@@H](C(=O)N[C@@H](Cc2c[nH]c3ccccc23)C(=O)N2CCC[C@H]2C(=O)O)NC(=O)[C@H](CC(C)C)NC(=O)[C@H](CO)NC(=O)CNC1=O [Ep133, EHLHCLGSLCWP] (H-EHLHCLGSLCWP-OH; disulfide 5-10; N-terminus and C-terminus assumed)
ability to bind to EpCAM without active oxidation treatment ([1]; data not shown): did not show the ability to bind to EpCAM
binding activity against EpCAM (EpCAM [2]): only a fraction of the peptides having the S—S bond showed binding activity against EpCAM

Molecule: L3A variant: FITC-labeled Ep114 variant peptide with leucine at 3rd residue substituted by alanine, staining control (KHAQCVRNICWS; cysteine pairing not given here; also: FITC-labeled, position not given here) [reference compound]
staining of cell membrane portions [3]: no staining was observed

Molecule: Ac-KHLQCVRNICWSPPPPPPKK(Biotin)-NH2 (cysteine pairing not given here) [PE183]
ELISA signal (EpCAM [4]): enhancement in ELISA signal proportional to the amount of EpCAM added

Molecule: Ac-KHAQCVRNICWSPPPPPPKK(Biotin)-NH2 (cysteine pairing not given here) [PE194, reference compound]
ELISA signal (EpCAM [4]): increase in signal intensity was rarely observed

Molecule: EHLHSLGSLSWP [Ep133 control, Ep133 with cysteine at positions 5 and 10 substituted by serine]
Kd (nM) (EpCAM [5]): N.B.

Molecule: KAKQCNGTSMCWPK [EpCAM partial sequence]
Kd (nM) (EpCAM [5]): N.B.

The remaining lines, values ahead:

staining of EpCAM on HT-29 spheroids (EpCAM on HT-29): stained
Molecule: 133-FITC: FITC-labeled Ep133 peptide (EHLHCLGSLCWP; cysteine pairing not given here; also: FITC-labeled, position not given here) [Peptide 133-FITC]

staining of EpCAM on HT-29 spheroids (EpCAM on HT-29): no staining is observed
Molecule: 133control-FITC: FITC-labeled Ep133 control peptide in which cysteine at positions 5 and 10 is substituted by serine (EHLHSLGSLSWP; also: FITC-labeled, position not given here) [reference compound]

staining of EpCAM on HT-29 spheroids (EpCAM on HT-29): no staining is observed
Molecule: 114control-FITC: FITC-labeled Ep114 control peptide in which cysteine at positions 5 and 10 is substituted by serine (KHLQSVRNISWS; also: FITC-labeled, position not given here) [reference compound]

Kd (nM) (EpCAM [5]): N.B.
Molecule: KSLQSINNLSWP [Ep301 control, Ep301 with cysteine at positions 5 and 10 substituted by serine]

staining of EpCAM on HT-29 spheroids (EpCAM on HT-29): stained
Molecule: 114-FITC: FITC-labeled Ep114 peptide (KHLQCVRNICWS; cysteine pairing not given here; also: FITC-labeled, position not given here) [Peptide 114-FITC]

ability to stain EpCAM ([1]; FITC-modified peptide with or without oxidation treatment): equivalent ability to stain EpCAM
Molecule: Ep114Cys: FITC-modified Ep114 peptide that did not undergo oxidation treatment (KHLQCVRNICWS; also: FITC-modified, position not given here, no oxidation treatment, cysteines not deliberately cross-linked)
